For one assay, the system named is Na+,K+-ATPase membranes. As to the kind of experiment: 13C CP-MAS SSNMR of NKA membranes with labelled inhibitor (binding-site saturation estimated from Table 1). The arrangement: species or system pig. As to conditions: NKA 13 nmol with 16 nmol inhibitor. The source says:
We next considered whether the enhanced activity of 5β arises from the additional hydrogen-bonding capacity of the glucose moiety. […] Here we used ^13C cross-polarization magic-angle spinning (CP-MAS) SSNMR to report on the interactions of the glycosidic groups of 5α and 5β with the binding site. […] In Fig. 5 panels C and D are shown ^13C CP-MAS SSNMR spectra of NKA (13 nmol) in the absence of inhibitor (red) and with 5β or 5α (each 16 nmol) (black), respectively. From Table 1 it is estimated that there is 99.5% saturation of the binding site by 5β and about 75% saturation by 5α. For the complex with 5β (Fig. 5C), signals from the inhibitor can clearly be observed around 60–90 ppm; […].
One dimensional proton-decoupled ^13C CP-MAS NMR experiments were performed at −25 °C using a Bruker Avance 400 MHz spectrometer at a magnetic field of 9.3 T equipped with a 4 mm HXY probe and (for 2D measurements on membranes) on a Bruker Avance III 700 MHz instrument with a 3.2 mm HXY probe operating in double-resonance mode. Samples were spun at a MAS rate of 5 kHz in a 4 mm zirconium rotor. […] Two-dimensional DARR spectra of solid inhibitors were recorded at room temperature with a 2-ms contact time at a field of 63 kHz, 83 kHz SPINAL-64 decoupling, […] and a 8-kHz proton field matched to the spinning frequency during a 10-ms mixing time. […]

For assay [1], the target named is T1, Na+, K+-ATPase from pig kidney microsomal membranes (Sus scrofa, UniProt P05024).
T1 construct: Na^+, K^+-ATPase from pig kidney microsomal membranes was purified by differential centrifugation; from tissue; host or cells: pig kidney microsomal membranes
As to the kind of experiment: Na+,K+-ATPase inhibition assay (residual ATP hydrolysis after 2 h preincubation with inhibitor).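 For all read-outs here: enzyme preincubated with inhibitor in 40 mM Tris pH 7.0 containing 3 mM MgCl2 and 3 mM Na-phosphate, remaining activity measured as phosphate released from ATP.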 The class given is biochemical. The settings on record: for KC (equilibrium constant E•I ↔ E•I*): KC = Fhigh/Flow; for Ki: Ki (dissociation constant of initial binding E + I ↔ E•I), derived from KDiss,high and KC; for percentage of high-affinity component (Fhigh): magnitude of high-affinity component of the inhibition curve; for ratio of KDiss,high values α-isomer:β-isomer: stereoselectivity, α:β of the same pair; for percentage of low-affinity component (Flow): magnitude of low-affinity component of the inhibition curve.
Description: The residual rates of ATP hydrolysis were plotted vs. different drug concentrations and analysed by fitting hyperbolic functions corresponding to a dominant high-affinity component and (where appropriate) a second smaller low-affinity component, and the resulting kinetic parameters were shown in Table 1.
The solid lines represent hyperbolic fits to the inactivation measured after preincubation of the inhibitors with NKA for 2 hours at 37 °C in the presence of Mg^2+ and Pi.
Na^+, K^+-ATPase from pig kidney microsomal membranes was purified by differential centrifugation[27]. […] The inhibitory effects of bufadienolides on NKA were determined essentially as previously reported[9][10].
Preparation and activity assay of Na+,K+-ATPase
Na+,K+-ATPase from pig kidney microsomal membranes was purified by
differential centrifugation.27 The specific Na,K-ATPase activity was determined
from the difference in the amount of phosphate released in the absence and
4 mM MgCl2 and 3 mM ATP. The specific activity of the enzyme preparation
was approximately 30 µmol ATP hydrolysed/mg protein per min at 37°C.27 The
phosphorylation capacity is about 2.9 nmol/mg protein and is equal to the
high-affinity ouabain binding capacity.10, 27
Details of the kinetic analysis of inhibition
The inhibitory effects of bufadienolides on NKA were determined
essentially as previously reported9, 10. In brief, NKA is preincubated at 37 °C for
2 hours in the presence of 3 mM MgCl2, 3 mM Na-phosphate and 40 mM Tris
(pH 7.0) with increasing concentrations of inhibitor. The residual NKA activity is
subsequently determined by 40-fold dilution into a standard ATPase assay
For each inhibitor concentration the
residual activity was determined in two or three independent experiments and
the error bars in Fig. 4 indicate the standard deviation.
(2) Detailed explanation of the kinetic analysis of inhibition
The interaction between bufalins (I) and Na+,K+-ATPase (E) is interpreted as
relatively slow equilibrium.
The binding of I to E is described by a dissociation constant
The conformational change
is described by an equilibrium constant
After equilibrium is attained by preincubation of the enzyme and inhibitor,
the residual Na+,K+-ATPase activity is measured by a 40-fold dilution into the
assay medium for 2 min. It is assumed that the dilution leads to an immediate
dissociation of E•I into E + I, and it is also assumed that the conformational
change E•I ↔ E•I* is slow on the 2-minutes time scale of the functional assay.
The observed decrease in the Na+,K+-ATPase activity is thus an estimate
of the amount of E•I* present at a given inhibitor concentration in the
preincubation media, and the observed concentration dependence of
inactivation is related to Ki as well as KC.

Setting [2] is: KDiss,high, high-affinity component of inhibition curve, preincubation 2 h, 37 °C, Mg2+ and Pi.
The mark [3] stands for this setting: KDiss,low, low-affinity component of inhibition curve, reflects ATPase assay medium.

Each structure is given as a SMILES string. Several values for one entry are separate records, joined by “and”; a condition that tells them apart may be missing. Identical values can stand only once.

The values below come from PMC4932606, “Novel stereoselective bufadienolides reveal new insights into the requirements for Na^+, K^+-ATPase inhibition by cardiotonic steroids” (Scientific Reports, 2016).

For `CON([C@@H]1CC[C@@]2(C)[C@H](CC[C@@H]3[C@@H]2CC[C@]2(C)[C@@H](c4ccc(=O)oc4)CC[C@]32O)C1)[C@@H]1O[C@H](CO)[C@@H](O)[C@H](O)[C@H]1O` [Compound 5α], the “saturation of the binding site” value in the assay with Na+,K+-ATPase membranes was “about 75%”. Besides, in assay [1], the “KC (equilibrium constant E•I ↔ E•I*)” value came out at 49, the Ki turned out to be 1920 µM, the “percentage of high-affinity component (Fhigh)” value (shortened to “percentage … (Fhigh)”) is given as 98% and the “ratio of KDiss,high values α-isomer:β-isomer” value came to 461. Also, in assay [1] (setting [2]), the equilibrium dissociation constant (Kd) amounted to 39.2 ± 1.5 µM.

`CON[C@@H]1CC[C@@]2(C)[C@H](CC[C@@H]3[C@@H]2CC[C@]2(C)[C@@H](c4ccc(=O)oc4)CC[C@]32O)C1` [Compound 4α]: in assay [1], the “KC (equilibrium constant E•I ↔ E•I*)” value worked out at 9.0, the Ki was found to be 65 µM, the “percentage … (Fhigh)” value turned out to be 90% and the “percentage of low-affinity component (Flow)” value (“percentage … (Flow)” below) stood at 10%. In addition, in assay [1], the “ratio of KDiss,high values α-isomer:β-isomer” value turned out to be 145. Binding in assay [1] (setting [2]) was put at a Kd of 7.26 ± 0.16 µM. Also, the Kd in assay [1] (setting [3]) amounted to 524 ± 153 µM.

Consider `CON(C1CCC2(C)C(CCC3C2CCC2(C)C(c4ccc(=O)oc4)CCC32O)C1)C1OC(CO)C(O)C(O)C1O` (stereo not drawn) [Compound 5β], for which the “saturation of the binding site” value in the assay on Na+,K+-ATPase membranes was 99.5%. In addition, in assay [1], the “KC (equilibrium constant E•I ↔ E•I*)” value was found to be 3.17; the inhibition constant Ki is ~0.26 µM and 0.26 µM; the “percentage … (Fhigh)” value is reported as 76%. For the same compound, binding in assay [1] (setting [2]) was put at a Kd of 0.085 ± 0.01 µM. In assay [1] (setting [3]), this compound returned a Kd of 67.6 ± 38 µM.

Turning to `C[C@]12CC[C@](O)(C(F)(F)F)C[C@H]1CC[C@@H]1[C@@H]2CC[C@]2(C)[C@@H](c3ccc(=O)oc3)CC[C@]12O` [Compound 6α], in assay [1], the “KC (equilibrium constant E•I ↔ E•I*)” value worked out at 1.86, the inhibition constant Ki was determined as 42.2 µM, the “percentage … (Fhigh)” value was found to be 65% and the “percentage … (Flow)” value was determined as 33%. Also, in assay [1], the “ratio of KDiss,high values α-isomer:β-isomer” value was 6.4. Besides, in assay [1] (setting [2]), the Kd amounted to 22.7 ± 1.56 µM. In assay [1] (setting [3]), this compound came in with a Kd of 242 ± 35 µM.

In the case of `CON[C@H]1CC[C@@]2(C)[C@H](CC[C@@H]3[C@@H]2CC[C@]2(C)[C@@H](c4ccc(=O)oc4)CC[C@]32O)C1` [Compound 4β], in assay [1], the “KC (equilibrium constant E•I ↔ E•I*)” value is recorded as 6.14; the Ki is ~0.31 µM and 0.31 µM. Further, the equilibrium dissociation constant (Kd) in assay [1] (setting [2]) is under 0.05 µM. In assay [1] (KDiss,low, low-affinity component, value in mM), this compound returned a dissociation constant Kd of over 1000 µM.

Regarding `C[C@]12CC[C@@](O)(C(F)(F)F)C[C@H]1CC[C@@H]1[C@@H]2CC[C@]2(C)[C@@H](c3ccc(=O)oc3)CC[C@]12O` [Compound 6β], in assay [1], the “KC (equilibrium constant E•I ↔ E•I*)” value stood at 1.78, the Ki was 6.3 µM, the “percentage … (Fhigh)” value came to 64% and the “percentage … (Flow)” value was found to be 32%. In addition, binding in assay [1] (setting [2]) was put at a Kd of 3.56 ± 0.6 µM. Besides, in assay [1] (setting [3]), the equilibrium dissociation constant (Kd) was found to be 93.5 ± 67 µM.
